Source: US10752584B2 (EMORY UNIVERSITY, priority 2016, dated 2020)

Experiments:
Assay type in all cases: cell-based
[1] = Cellular toxicity assay in human PBM cells; conditions: human, human PBM cells, read-out: Cytotoxicity
Procedure: (§1) The toxicity of the compounds was assessed in Vero, human PBM, CEM (human lymphoblastoid), MT-2, and HepG2 cells, as described previously (see Schinazi R. F., Sommadossi J.-P., Saalmann V., Cannon D. L., Xie M.-Y., Hart G. C., Smith G. A. & Hahn E. F. Antimicrob. Agents Chemother. 1990, 34, 1061-67). Cycloheximide was included as positive cytotoxic control, and untreated cells exposed to solvent were included as negative controls. The cytotoxicity IC50 was obtained from the concentration-response curve using the median effective method described previously (see Chou T.-C. & Talalay P. Adv. Enzyme Regul. 1984, 22, 27-55; Belen'kii M. S. & Schinazi R. F. Antiviral Res. 1994, 25, 1-11).

[2] = Cellular toxicity assay in CEM cells; conditions: human, CEM lymphoblastoid cells, read-out: Cytotoxicity
Procedure: as §1

[3] = Cellular toxicity assay in Vero cells; conditions: African green monkey, read-out: Cytotoxicity
Procedure: as §1

[4] = Cellular toxicity assay in HepG2 cells; conditions: human, read-out: Cytotoxicity
Procedure: as §1

[5] = tested on: wild type HBV; test: Anti-HBV assay in AD-38 cell line; conditions: Hepatitis B virus, AD-38 cells, HBV in culture supernatant; for EC50: read-out: Anti-HBV activity EC50; for EC90: read-out: Anti-HBV activity EC90
Procedure: The anti-HBV activity of the compounds was determined by treating the AD-38 cell line carrying wild type HBV under the control of tetracycline (see Ladner S. K., Otto M. J., Barker C. S., Zaifert K., Wang G. H., Guo J. T., Seeger C. & King R. W. Antimicrob. Agents Chemother. 1997, 41, 1715-20). Removal of tetracycline from the medium [Tet (−)] results in the production of HBV. The levels of HBV in the culture supernatant fluids from cells treated with the compounds were compared with that of the untreated controls. Control cultures with tetracycline [Tet (+)] were also maintained to determine the basal levels of HBV expression. 3TC was included as positive control.
The median effective concentrations (EC50) ranges of several of the compounds described herein against HBV are shown in Table 3: […]

| SMILES | CC50 [1] [µM] | CC50 [2] [µM] | CC50 [3] [µM] | CC50 [4] [µM] | EC50 [5] [nM] | EC90 [5] [nM] |
| --- | --- | --- | --- | --- | --- | --- |
| Cc1c(C(=O)C(=O)Nc2ccccn2)c(C)n(C)c1C(=O)Nc1ccccc1 [Compound 52, 1,3,5-trimethyl-4-(2-oxo-2-(pyridin-2-ylamino)acetyl)-N-phenyl-1H-pyrrole-2-carboxamide] | > 100 | 50 | > 100 | > 100 | 10 to 90 | 100 to 900 |
| C#CCNC(=O)C(=O)c1c(C)c(C(=O)Nc2cccc(OC(F)(F)F)c2)n(C)c1C [Compound 55, 1,3,5-trimethyl-4-(2-oxo-2-(prop-2-yn-1-ylamino)acetyl)-N-(3-(trifluoromethoxy)phenyl)-1H-pyrrole-2-carboxamide] | > 100 | 38 | 15 | 88 | 100 to 900 | 1000 to 9000 |
| C#CCNC(=O)C(=O)c1c(C)c(C(=O)NC(C)(C)c2ccc(F)c(F)c2)n(C)c1C [Compound 56, N-(2-(3,4-difluorophenyl)propan-2-yl)-1,3,5-trimethyl-4-(2-oxo-2-(prop-2-yn-1-ylamino)acetyl)-1H-pyrrole-2-carboxamide] | > 100 | > 100 | > 100 | > 100 | 1000 to 9000 |  |
| C#CCNC(=O)C(=O)c1c(C)c(C(=O)NC2(c3ccc(F)c(F)c3)CC2)n(C)c1C [Compound 57, N-(1-(3,4-difluorophenyl)cyclopropyl)-1,3,5-trimethyl-4-(2-oxo-2-(prop-2-yn-1-ylamino)acetyl)-1H-pyrrole-2-carboxamide] | > 100 | > 100 | > 100 | > 100 | 1000 to 9000 |  |
| C#CCNC(=O)C(=O)c1c(C)c(C(=O)Nc2ccccc2)n(C)c1C [Compound 58, 1,3,5-trimethyl-4-(2-oxo-2-(prop-2-yn-1-ylamino)acetyl)-N-phenyl-1H-pyrrole-2-carboxamide] | > 100 | > 100 | > 100 | > 100 | 10 to 90 | 100 to 900 |
| C#CCNC(=O)C(=O)c1c(C)c(C(=O)Nc2ccc(S(F)(F)(F)(F)F)cc2)n(C)c1C [Compound 59, 1,3,5-trimethyl-4-(2-oxo-2-(prop-2-yn-1-ylamino)acetyl)-N-(4-(pentafluorosulfanyl)phenyl)-1H-pyrrole-2-carboxamide] | 44 | 3 | 12 | 43 | 1000 to 9000 |  |
| C#CCNC(=O)C(=O)c1c(C)c(C(=O)Nc2cccc(S(F)(F)(F)(F)F)c2)n(C)c1C [Compound 60, 1,3,5-trimethyl-4-(2-oxo-2-(prop-2-yn-1-ylamino)acetyl)-N-(3-(pentafluorosulfanyl)phenyl)-1H-pyrrole-2-carboxamide] | 86 | 23 | 82 | > 100 | 100 to 900 | 100 to 900 |
| C#CCNC(=O)C(=O)c1c(C)c(C(=O)Nc2ccc(F)nc2)n(C)c1C [Compound 61, N-(6-fluoropyridin-3-yl)-1,3,5-trimethyl-4-(2-oxo-2-(prop-2-yn-1-ylamino)acetyl)-1H-pyrrole-2-carboxamide] | > 100 | > 100 | > 100 | > 100 | 100 to 900 | 100 to 900 |
| C#CCNC(=O)C(=O)c1c(C)c(C(=O)Nc2cncnc2)n(C)c1C [Compound 62, 1,3,5-trimethyl-4-(2-oxo-2-(prop-2-yn-1-ylamino)acetyl)-N-(pyrimidin-5-yl)-1H-pyrrole-2-carboxamide] | > 100 | > 100 | > 100 | > 100 | 1000 to 9000 | 1000 to 9000 |
| C#CCNC(=O)C(=O)c1c(C)c(C(=O)Nc2ccncc2)n(C)c1C [Compound 63, 1,3,5-trimethyl-4-(2-oxo-2-(prop-2-yn-1-ylamino)acetyl)-N-(pyridin-4-yl)-1H-pyrrole-2-carboxamide] | > 100 | > 100 | > 100 | > 100 | 100 to 900 | 1000 to 9000 |
| C#CCNC(=O)C(=O)c1c(C)c(C(=O)Nc2ccc(F)c(C)c2)n(C)c1C [Compound 64, N-(4-fluoro-3-methylphenyl)-1,3,5-trimethyl-4-(2-oxo-2-(prop-2-yn-1-ylamino)acetyl)-1H-pyrrole-2-carboxamide] | > 100 | 18 | 96 | > 100 | 0.1 to 0.9 | 1 to 9 |
| C#CCNC(=O)C(=O)c1c(C)c(C(=O)Nc2ccc(F)c(Cl)c2)n(C)c1C [Compound 66, N-(3-chloro-4-fluorophenyl)-1,3,5-trimethyl-4-(2-oxo-2-(prop-2-yn-1-ylamino)acetyl)-1H-pyrrole-2-carboxamide] | > 100 | 52 | 70 | 83 | 1 to 9 | 10 to 90 |
| Cc1c(C(=O)C(=O)Nc2ccccc2)c(C)n(C)c1C(=O)Nc1ccc(F)c(F)c1 [Compound 69, N-(3,4-difluorophenyl)-1,3,5-trimethyl-4-(2-oxo-2-(phenylamino)acetyl)-1H-pyrrole-2-carboxamide] | > 100 | > 100 | 48 | 59 | 1 to 9 | 10 to 90 |
| Cc1c(C(=O)C(=O)N2CCOCC2)c(C)n(C)c1C(=O)Nc1ccc(F)c(F)c1 [Compound 72, N-(3,4-difluorophenyl)-1,3,5-trimethyl-4-(2-morpholino-2-oxoacetyl)-1H-pyrrole-2-carboxamide] | 30 | 14 | 51 | 100 | 100 to 900 | 100 to 900 |
| C=CCNC(=O)C(=O)c1c(C)c(C(=O)Nc2ccc(F)c(F)c2)n(C)c1C [Compound 75, 4-(2-(allylamino)-2-oxoacetyl)-N-(3,4-difluorophenyl)-1,3,5-trimethyl-1H-pyrrole-2-carboxamide] | > 100 | 66 | 33 | > 100 | 1 to 9 | 10 to 90 |
| Cc1c(C(=O)C(=O)Nc2nccs2)c(C)n(C)c1C(=O)Nc1ccc(F)c(F)c1 [Compound 78, N-(3,4-difluorophenyl)-1,3,5-trimethyl-4-(2-oxo-2-(thiazol-2-ylamino)acetyl)-1H-pyrrole-2-carboxamide] | > 100 | 15 | > 100 | 84 | 1 to 9 | 10 to 90 |
| Cc1c(C(=O)C(=O)NCC#N)c(C)n(C)c1C(=O)Nc1ccc(F)c(F)c1 [Compound 81, 4-(2-((cyanomethyl)amino)-2-oxoacetyl)-N-(3,4-difluorophenyl)-1,3,5-trimethyl-1H-pyrrole-2-carboxamide] | 30 | 33 | > 100 | 71 | 1 to 9 | 100 to 900 |
| Cc1c(C(=O)C(=O)NCc2nn[nH]n2)c(C)n(C)c1C(=O)Nc1ccc(F)c(F)c1 [Compound 82, 4-(2-(((2H-tetrazol-5-yl)methyl)amino)-2-oxoacetyl)-N-(3,4-difluorophenyl)-1,3,5-trimethyl-1H-pyrrole-2-carboxamide] | > 100 | > 100 | > 100 | > 100 | 1000 to 9000 |  |
| Cc1c(C(=O)C(=O)NCC#Cc2nccn2C)c(C)n(C)c1C(=O)Nc1ccc(F)c(F)c1 [Compound 83, N-(3,4-difluorophenyl)-1,3,5-trimethyl-4-(2-((3-(1-methyl-1H-imidazol-2-yl)prop-2-yn-1-yl)amino)-2-oxoacetyl)-1H-pyrrole-2-carboxamide] | 7 | 4 | 7 | 42 | 1000 to 9000 |  |
